Data taken from patent US20140260103A1, “Methods of Making Solid Stick Antiperspirant Compositions” (The Procter & Gamble Company, priority 2013, published 2014).

Test: Hygroscopicity: moisture pick up of antiperspirant active in controlled relative humidity
Assay type: physicochemical
Details: at 86% RH, 5 days, 20° C.
Method: One way to evaluate the hygroscopic nature of an antiperspirant active is to determine the equilibrium moisture pick up of the active after 5 days in a controlled relative humidity environment. Specific humidity chambers can be created placing saturated salt solutions in desiccators at a specific temperature. Different salts are used to create different humidities, for example potassium chloride can be used to make an 86% relative humidity (RH) environment at 20° C. In general there is an increase in moisture pick up as humidity is increased for the antiperspirant actives shown, however there are clear differences in slope and amount of moisture pick up at high humidity. Materials with higher slope and larger increases at high humidity (i.e. 86% RH) are considered to be more hygroscopic. The aluminum zirconium trichlorohydrate active (metal to chloride ratio=1.6) from Inventive Example 1 is the least hygroscopic (28% moisture pick up at 86% RH) with the aluminum zirconium tetrachlorohydrate active (metal to chloride ratio=1.2) being substantially more hygroscopic (40% moisture pick up at 86% RH). […] This may explain the substantial difference observed in the amount of sweat measured between Inventive Examples 1 and 2. […]

Row | moisture pick up (hygroscopicity) [%] | Substance
1 | 40 | aluminum zirconium tetrachlorohydrate
2 | 28 | aluminum zirconium trichlorohydrate
